Consider 26 compounds from ChEMBL document CHEMBL5233263 (Eur J Med Chem, 2021).

The target of assay [1] is T1, D(4) dopamine receptor (Homo sapiens, UniProt P21917).
T1 sequence (P21917 whole entry): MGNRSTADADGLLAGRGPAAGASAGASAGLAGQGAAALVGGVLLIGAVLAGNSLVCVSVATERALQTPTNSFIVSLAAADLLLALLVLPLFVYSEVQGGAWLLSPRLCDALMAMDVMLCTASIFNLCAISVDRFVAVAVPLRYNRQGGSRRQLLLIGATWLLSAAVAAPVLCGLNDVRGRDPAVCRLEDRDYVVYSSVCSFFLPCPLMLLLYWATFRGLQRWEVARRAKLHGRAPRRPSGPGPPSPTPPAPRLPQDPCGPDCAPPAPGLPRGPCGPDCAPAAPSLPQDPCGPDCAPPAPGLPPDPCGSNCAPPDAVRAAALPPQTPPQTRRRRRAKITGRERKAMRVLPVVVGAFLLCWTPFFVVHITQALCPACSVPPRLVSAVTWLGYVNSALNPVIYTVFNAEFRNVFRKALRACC
The assay is described as follows: Displacement of [3H]-spiperone from human D4 receptor expressed in CHO cells assessed as inhibition constant. The format is cell-based.

Assay [2] addresses T2, D(2) dopamine receptor (Homo sapiens, UniProt P14416). Put plainly: Displacement of [3H]-spiperone from human D2 receptor assessed as inhibition constant.
For assay [3], the target named is T3, D(3) dopamine receptor (Homo sapiens, UniProt P35462). The assay is described as follows: Displacement of [3H]-spiperone from human D3 receptor assessed as inhibition constant.
T3 sequence (P35462 whole entry): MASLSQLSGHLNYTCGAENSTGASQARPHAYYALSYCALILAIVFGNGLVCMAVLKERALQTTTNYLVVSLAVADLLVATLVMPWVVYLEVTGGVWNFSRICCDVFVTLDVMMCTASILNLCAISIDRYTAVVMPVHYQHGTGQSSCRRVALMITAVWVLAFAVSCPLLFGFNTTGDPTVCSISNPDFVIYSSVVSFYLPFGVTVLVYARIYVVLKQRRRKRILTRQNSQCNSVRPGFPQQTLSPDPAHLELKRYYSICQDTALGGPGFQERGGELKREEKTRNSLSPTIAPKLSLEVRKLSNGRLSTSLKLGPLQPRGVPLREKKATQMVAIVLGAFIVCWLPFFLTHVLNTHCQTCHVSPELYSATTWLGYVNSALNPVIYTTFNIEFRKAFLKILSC
Assay [4] concerns the target T1, D(4) dopamine receptor. Put plainly: Displacement of [3H]-spiperone from human D4 receptor expressed in CHO-K1 cells assessed as inhibition constant measured after 60 mins. The format is cell-based.
In assay [5] the target is T2, D(2) dopamine receptor. The assay is described as follows: Displacement of [3H]-spiperone from human D2 receptor expressed in Sf9 cells assessed as inhibition constant.
In assay [6] the target is T3, D(3) dopamine receptor. The assay is described as follows: Displacement of [3H]-spiperone from human D3 receptor expressed in CHO cells assessed as inhibition constant. The format is cell-based.
Assay [7] addresses T1, D(4) dopamine receptor. The assay is described as follows: Agonist activity at human D4R assessed as [35S] GTPgammaS binding.
Assay [8] has as its target T4, D(4) dopamine receptor (Homo sapiens) (UniProt P21917).
T4 sequence (whole entry): T1 sequence (P21917 whole entry)
Put plainly: Agonist activity at human D4R assessed as [35S] GTPgammaS binding relative to control. The settings on record: filed as agonist.

Assay [9] concerns the target T4, D(4) dopamine receptor (Homo sapiens). The assay is described as follows: Binding affinity to human D4R at 1 uM relative to control.
For assay [10], the target named is T1, D(4) dopamine receptor. Put plainly: Binding affinity to human D4R assessed as inhibition constant.
For assay [11], the target named is T2, D(2) dopamine receptor. Put plainly: Binding affinity to D2R (unknown origin) assessed as inhibition constant.
The target of assay [12] is T1, D(4) dopamine receptor. The assay is described as follows: (§1) Displacement of [3H]-nemonapride from human D4 receptor expressed in CHO cells assessed as inhibition constant. Format: cell-based.
Assay [13] concerns the target T3, D(3) dopamine receptor. Put plainly: Binding affinity to D3R (unknown origin) assessed as inhibition constant.
For assay [14], the target named is T1, D(4) dopamine receptor. Put plainly: Agonist activity at D4R (unknown origin) by camp reporter assay.
Assay [15] deals with T2, D(2) dopamine receptor. The assay is described as follows: Binding affinity to human D2R assessed as inhibition constant.
Assay [16] concerns the target T3, D(3) dopamine receptor. The assay is described as follows: Binding affinity to human D3R assessed as inhibition constant.
Assay [17] has as its target T2, D(2) dopamine receptor. The assay is described as follows: Agonist activity at human D2R expressed in HEK293 cells incubated for 3 mins by FLIPR analysis. Format: cell-based.
Assay [18] has as its target T1, D(4) dopamine receptor. Put plainly: Binding affinity to D4R (unknown origin) assessed as inhibition constant.
The target of assay [19] is T1, D(4) dopamine receptor. The assay is described as follows: Agonist activity at human D4R.
Assay [20] addresses T4, D(4) dopamine receptor (Homo sapiens). Put plainly: Agonist activity at human D4R at 10 uM relative to control.
Assay [21] has the same target. The assay is described as §1. The format is cell-based.
Assay [22] addresses T2, D(2) dopamine receptor. The assay is described as follows: Binding affinity to human D2R assessed as inhibition constant by Cheng-Prusoff equation analysis.
For assay [23], the target named is T1, D(4) dopamine receptor. The assay is described as follows: Displacement of [3H]-spiperone from human D4 receptor expressed in HEK293 cells assessed as inhibition constant. The format is cell-based.
Assay [24] deals with 5-hydroxytryptamine receptor 2A (Homo sapiens, UniProt P28223). Put plainly: Binding affinity to 5HT2A receptor (unknown origin) assessed as inhibition constant.
Sequence of 5-hydroxytryptamine receptor 2A (P28223 whole entry): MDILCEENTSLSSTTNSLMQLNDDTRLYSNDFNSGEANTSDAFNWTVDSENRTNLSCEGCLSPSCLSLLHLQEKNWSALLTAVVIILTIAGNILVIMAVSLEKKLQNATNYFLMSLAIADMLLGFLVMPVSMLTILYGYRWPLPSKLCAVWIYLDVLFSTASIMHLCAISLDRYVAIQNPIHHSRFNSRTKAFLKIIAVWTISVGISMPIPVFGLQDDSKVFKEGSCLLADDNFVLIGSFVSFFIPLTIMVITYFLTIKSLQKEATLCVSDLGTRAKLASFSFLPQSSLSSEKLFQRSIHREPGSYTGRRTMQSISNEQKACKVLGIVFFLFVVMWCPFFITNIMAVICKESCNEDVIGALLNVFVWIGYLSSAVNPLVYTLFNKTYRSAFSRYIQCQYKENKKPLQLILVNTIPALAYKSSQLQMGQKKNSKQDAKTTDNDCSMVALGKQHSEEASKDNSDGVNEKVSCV
The target of assay [25] is T1, D(4) dopamine receptor. Put plainly: Agonist activity at D4R (unknown origin).
Assay [26] addresses T1, D(4) dopamine receptor. Put plainly: Displacement of [3H]-methylspiperone from D4 (unknown origin) receptor expressed in HEK293T cells assessed as inhibition constant. Format: cell-based.

T2 sequence (P14416 whole entry): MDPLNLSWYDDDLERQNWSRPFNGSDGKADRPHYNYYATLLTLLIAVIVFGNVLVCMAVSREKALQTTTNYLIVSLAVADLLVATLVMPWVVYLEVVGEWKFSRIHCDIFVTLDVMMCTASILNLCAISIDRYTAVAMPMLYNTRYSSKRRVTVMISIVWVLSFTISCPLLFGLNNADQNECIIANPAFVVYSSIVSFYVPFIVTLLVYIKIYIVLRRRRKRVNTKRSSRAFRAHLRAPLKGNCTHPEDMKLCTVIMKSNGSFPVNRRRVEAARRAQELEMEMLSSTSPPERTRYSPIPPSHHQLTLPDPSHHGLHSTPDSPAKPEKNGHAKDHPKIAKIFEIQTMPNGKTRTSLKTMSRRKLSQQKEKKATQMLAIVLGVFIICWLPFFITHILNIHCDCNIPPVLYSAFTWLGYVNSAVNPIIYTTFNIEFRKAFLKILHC

On to `COc1cc(Cl)ccc1OCC1CN(Cc2ccc(Cl)cc2)CCO1` (centres undefined), for which the Ki in assay [1] turned out to be 2.8 nM.
Take `Clc1ccc2c(c1)N=C(N1CCN(c3ccccc3)CC1)CCN2`: the Ki turned out to be 4700 nM in assay [2], 3400 nM in assay [3] and 31 nM in assay [4].
Regarding `CC(C)Oc1cccnc1N(C)C1CCN(Cc2ccc(I)cc2)CC1`, in assay [5], the Ki was determined as 568 nM.
In the case of `COc1ccccc1N1CCN(Cc2ccc3cccccc2-3)CC1`, the Ki in assay [6] was determined as 82 nM. In addition, in assay [7], the EC50 worked out at 3.7 nM. In [8], the Emax came to 54%.
Take `Clc1ccc2c(c1)N=C(N1CCN(CCCCc3ccccc3)CC1)c1ccccc1N2`: the Activity in [9] is 82%.
On to `CCOC(=O)N1CCN(Cc2cnn(-c3ccc(Cl)cc3)c2)CC1`, for which the Ki came out at 260 nM in assay [10], 10200 nM in assay [11] and 260 nM in [12].
Regarding `COc1ccccc1OCCNCC1COCC(c2ccccc2)(c2ccccc2)O1` (centres undefined), the results for the Ki in assay [11] and in assay [13] were > 10000 nM and 13 nM, respectively. Also, the midpoint of the response in [14], the EC50, lay at 1.4 nM.
With `CCOC(=O)c1[nH]c2ccc(F)cc2c1CN1CCN(c2ccccc2)CC1`, the figures for the Ki in [15], in [16] and in assay [1] were 22000 nM, 15000 nM and 1.5 nM, respectively.
Turning to `c1ccc(N2CCN(Cc3nc4ccccc4[nH]3)CC2)nc1` [ABT-724], the EC50 in assay [17] stood at 12 nM.
On to `CCOC(=O)c1nn(-c2ccccc2)cc1CN(C)[C@@H]1CCSC1`, for which the EC50 in assay [14] is 10800 nM.
Take `NS(=O)(=O)c1ccc(N2CCN(CCC3OCCc4ccccc43)CC2)cc1` (centres undefined): the Ki in [11] is 5150 nM; in [13] it was > 2780 nM; in [18] it was 3.6 nM.
Take `CN(C)[C@@H](CNC(=O)NC[C@H]1Cc2ccccc21)CC1CCCCC1`: the Ki in assay [11] was > 10000 nM; in assay [13], 5400 nM.
With `COc1cccc(CCC2=NCCN2CCc2ccccc2)c1`, the Ki in [11] and in [13] was > 10000 nM each time.
In the case of `Oc1cccc(OCCNCC2COCC(c3ccccc3)(c3ccccc3)O2)c1` (centres undefined), the results for the Ki in assay [11] and in assay [13] were > 10000 nM and 1.4 nM, respectively.
Regarding `N#Cc1[nH]c2ccccc2c1CN1CCN(c2ccccc2)CC1`, the figures for the Ki in [15], in assay [16] and in assay [1] were 4900 nM, 2500 nM and 0.76 nM, respectively.
As for `Cc1ncc(CN2CC=C(c3ccccc3)CC2)c(N)n1`, the Ki in assay [15] is > 1000 nM; in assay [16], > 1000 nM; in assay [1], 5.2 nM. Besides, the EC50 in [19] stood at 205 nM. Further, in assay [20], the maximal effect (Emax) was 36%.
For the compound `Clc1ccc2c(c1)N=C(N1CCN(CCCOc3ccccc3)CC1)c1ccccc1N2`, the Activity in [9] is 81%.
Consider `OCc1[nH]c2ccccc2c1CN1CCN(c2ccccc2)CC1`, for which the Ki in [15] amounted to 2100 nM; in assay [16] it was 3300 nM; in [1], 0.66 nM.
In the case of `OCc1ccc(N2CCN(Cc3nc4ccccc4[nH]3)CC2)cc1Cl`, in assay [21], the K came to 3.6 nM. In addition, in assay [22], the Ki is > 5880 nM.
As to `O/N=C/c1c(CN2CCN(c3ccccc3)CC2)[nH]c2ccccc12`, the figures for the Ki in assay [15], in assay [16] and in [1] were 8800 nM, 3700 nM and 0.5 nM, respectively.
With `CCOC(=O)c1sc2[nH]cn/c(=N\[C@H]3CCN(CC)C3)c2c1C`, the Ki in assay [11] and in assay [13] was > 10000 nM each time.
In the case of `Clc1ccc(OCC2CN(Cc3c[nH]c4ncccc34)CCO2)cc1` (centres undefined), the K in assay [11] is > 1700 nM. Further, the Ki is 3200 nM in assay [13] and 1.5 nM in assay [23].
Regarding `Clc1ccc2c(c1)C(N1CCN(CCc3ccccc3)CC1)=Nc1cccnc1N2`, the Ki in assay [24] was determined as 103 nM.
With `CC(=O)O[C@H]1CC(C)(C)C(=C=C/C(C)=C/C=C/C(C)=C/C=C/C=C(C)/C=C/C=C(\C)C(=O)C[C@@]23O[C@]2(C)C[C@@H](O)CC3(C)C)[C@](C)(O)C1`, the values for the half-maximal effective concentration (EC50) in assay [14] and in [25] were 82000 nM and 16900 nM, respectively.
The compound `Clc1ccc2c(c1)N=C(N1CCN(CCCCc3ccncc3)CC1)c1ccccc1N2` gave an Activity in assay [9] of 78%.
For `CC(C)N1C[C@H](NC(=O)N2Cc3ccccc3[C@@H]2C)[C@@H](C)C1`, the Ki in assay [11] is > 10000 nM; in assay [13], > 10000 nM; in [26], 4.3 nM. For the same compound, a half-maximal effect in assay [14] (EC50) was put at 0.18 nM.
